Laboratory results taken from PubChem BioAssay (NCI).
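Step 1: Grow cells in 96-well plates. Step 2: Expose to compound for 48 hours at 5 concentrations. Step 3: Interpolate endpoints linearly; if unreached, use highest concentration. GI50 marks 50% less growth. The concentration for full growth arrest is given as TGI.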

Columns and labels:
Test in all cases: NCI tumour cell line growth inhibition, 48 h
TK-10 renal = system: TK-10 renal
CAKI-1 renal = system: CAKI-1 renal
HS 578T breast = system: HS 578T breast
U251 CNS = system: U251 CNS
HOP-62 NSCLC = system: HOP-62 NSCLC
SK-MEL-2 melanoma = system: SK-MEL-2 melanoma
UACC-62 melanoma = system: UACC-62 melanoma
SW-620 colon = system: SW-620 colon
IGROV1 ovarian = system: IGROV1 ovarian
OVCAR-3 ovarian = system: OVCAR-3 ovarian
COLO 205 colon = system: COLO 205 colon
NCI-H23 lung = system: NCI-H23 lung
RXF 393 renal = system: RXF 393 renal
LOX IMVI melanoma = system: LOX IMVI melanoma
UO-31 renal = system: UO-31 renal
HL-60(TB) leukemia = system: HL-60(TB) leukemia
NCI-H226 lung = system: NCI-H226 lung
PC-3 prostate = system: PC-3 prostate
T-47D breast = system: T-47D breast
NCI-H460 lung = system: NCI-H460 lung
MDA-MB-435 = system: MDA-MB-435
SK-MEL-28 melanoma = system: SK-MEL-28 melanoma
UACC-257 melanoma = system: UACC-257 melanoma
MALME-3M melanoma = system: MALME-3M melanoma
OVCAR-5 ovarian = system: OVCAR-5 ovarian
HCT-15 colon = system: HCT-15 colon
MOLT-4 leukemia = system: MOLT-4 leukemia
M14 melanoma = system: M14 melanoma
SF-268 CNS = system: SF-268 CNS
HOP-92 NSCLC = system: HOP-92 NSCLC
HCT-116 colon = system: HCT-116 colon
MDA-MB-231 breast = system: MDA-MB-231 breast
EKVX NSCLC = system: EKVX NSCLC
OVCAR-8 ovarian = system: OVCAR-8 ovarian
ACHN renal = system: ACHN renal
BT-549 breast = system: BT-549 breast
DU-145 prostate = system: DU-145 prostate
RPMI-8226 leukemia = system: RPMI-8226 leukemia
HT29 colon = system: HT29 colon
SF-295 CNS = system: SF-295 CNS
KM12 colon = system: KM12 colon
CCRF-CEM leukemia = system: CCRF-CEM leukemia
786-0 renal = system: 786-0 renal
NCI/ADR-RES ovarian = system: NCI/ADR-RES ovarian
SNB-75 CNS = system: SNB-75 CNS
A498 renal = system: A498 renal
SNB-19 CNS = system: SNB-19 CNS
SK-OV-3 ovarian = system: SK-OV-3 ovarian
SK-MEL-5 melanoma = system: SK-MEL-5 melanoma
A549 NSCLC = system: A549 NSCLC
SF-539 CNS = system: SF-539 CNS
SN12C renal = system: SN12C renal
NCI-H522 lung = system: NCI-H522 lung
K-562 leukemia = system: K-562 leukemia
MCF7 breast = system: MCF7 breast
HCC-2998 colon = system: HCC-2998 colon
OVCAR-4 ovarian = system: OVCAR-4 ovarian

CCSC1=N/C(=C\c2ccccc2O)C(Nc2ccc(C)cc2)=N1
TGI (TK-10 renal): > 100 µM | TGI (CAKI-1 renal): > 100 µM | TGI (HS 578T breast): > 100 µM | TGI (U251 CNS): > 100 µM | TGI (HOP-62 NSCLC): > 100 µM | TGI (SK-MEL-2 melanoma): > 100 µM | TGI (UACC-62 melanoma): > 100 µM | TGI (SW-620 colon): > 100 µM | TGI (IGROV1 ovarian): > 100 µM | TGI (OVCAR-3 ovarian): 67.3 µM | TGI (COLO 205 colon): > 100 µM | TGI (NCI-H23 lung): > 100 µM | TGI (RXF 393 renal): > 100 µM | TGI (LOX IMVI melanoma): > 100 µM | TGI (UO-31 renal): > 100 µM | TGI (HL-60(TB) leukemia): > 100 µM | TGI (NCI-H226 lung): > 100 µM | TGI (PC-3 prostate): > 100 µM | TGI (T-47D breast): > 100 µM | TGI (NCI-H460 lung): > 100 µM | TGI (MDA-MB-435): > 100 µM | TGI (SK-MEL-28 melanoma): > 100 µM | TGI (UACC-257 melanoma): > 100 µM | TGI (MALME-3M melanoma): > 100 µM | TGI (OVCAR-5 ovarian): > 100 µM | TGI (HCT-15 colon): > 100 µM | TGI (MOLT-4 leukemia): > 100 µM | TGI (M14 melanoma): > 100 µM | TGI (SF-268 CNS): > 100 µM | TGI (HOP-92 NSCLC): > 100 µM | TGI (HCT-116 colon): > 100 µM | TGI (MDA-MB-231 breast): > 100 µM | TGI (EKVX NSCLC): > 100 µM | TGI (OVCAR-8 ovarian): > 100 µM | TGI (ACHN renal): > 100 µM | TGI (BT-549 breast): > 100 µM | TGI (DU-145 prostate): > 100 µM | TGI (RPMI-8226 leukemia): > 100 µM | TGI (HT29 colon): > 100 µM | TGI (SF-295 CNS): > 100 µM | TGI (KM12 colon): > 100 µM | TGI (CCRF-CEM leukemia): > 100 µM | TGI (786-0 renal): > 100 µM | TGI (NCI/ADR-RES ovarian): > 100 µM | TGI (SNB-75 CNS): > 100 µM | TGI (A498 renal): > 100 µM | TGI (SNB-19 CNS): > 100 µM | TGI (SK-OV-3 ovarian): > 100 µM | TGI (SK-MEL-5 melanoma): > 100 µM | TGI (A549 NSCLC): > 100 µM | TGI (SF-539 CNS): > 100 µM | TGI (SN12C renal): > 100 µM | TGI (NCI-H522 lung): 94.4 µM | TGI (K-562 leukemia): > 100 µM

COc1ccc2[nH]cc(-c3nc(-c4cn(C)c5ccncc45)cs3)c2c1
GI50 (TK-10 renal): 1.48 µM | TGI (TK-10 renal): 3.12 µM | GI50 (CAKI-1 renal): 1.84 µM | TGI (CAKI-1 renal): 3.35 µM | GI50 (HS 578T breast): 14.7 µM | TGI (HS 578T breast): 41.6 µM | GI50 (U251 CNS): 1.91 µM | TGI (U251 CNS): 3.42 µM | GI50 (HOP-62 NSCLC): 1.92 µM | TGI (HOP-62 NSCLC): 3.63 µM | GI50 (SK-MEL-2 melanoma): 15.8 µM | TGI (SK-MEL-2 melanoma): 30.1 µM | GI50 (MCF7 breast): 1.81 µM | TGI (MCF7 breast): 3.65 µM | GI50 (UACC-62 melanoma): 18.5 µM | TGI (UACC-62 melanoma): 37.5 µM | GI50 (SW-620 colon): 1.95 µM | TGI (SW-620 colon): 3.81 µM | GI50 (IGROV1 ovarian): 1.93 µM | TGI (IGROV1 ovarian): 3.54 µM | GI50 (OVCAR-3 ovarian): 1.85 µM | TGI (OVCAR-3 ovarian): 3.41 µM | GI50 (NCI-H23 lung): 2.12 µM | TGI (NCI-H23 lung): 4.12 µM | GI50 (RXF 393 renal): 1.83 µM | TGI (RXF 393 renal): 3.34 µM | GI50 (UO-31 renal): 1.8 µM | TGI (UO-31 renal): 3.36 µM | GI50 (HL-60(TB) leukemia): 1.9 µM | TGI (HL-60(TB) leukemia): 4.12 µM | GI50 (NCI-H226 lung): 18.3 µM | TGI (NCI-H226 lung): 45.9 µM | GI50 (HCC-2998 colon): 1.88 µM | TGI (HCC-2998 colon): 3.42 µM | GI50 (PC-3 prostate): 1.98 µM | TGI (PC-3 prostate): 4.13 µM | GI50 (NCI-H460 lung): 1.97 µM | TGI (NCI-H460 lung): 3.67 µM | GI50 (MDA-MB-435): 1.71 µM | TGI (MDA-MB-435): 3.22 µM | GI50 (SK-MEL-28 melanoma): 1.79 µM | TGI (SK-MEL-28 melanoma): 3.22 µM | GI50 (OVCAR-4 ovarian): 2.14 µM | TGI (OVCAR-4 ovarian): 4.51 µM | GI50 (UACC-257 melanoma): 16.7 µM | TGI (UACC-257 melanoma): 33.3 µM | GI50 (MALME-3M melanoma): 2.11 µM | TGI (MALME-3M melanoma): 3.65 µM | GI50 (OVCAR-5 ovarian): 2 µM | TGI (OVCAR-5 ovarian): 3.6 µM | GI50 (HCT-15 colon): 1.88 µM | TGI (HCT-15 colon): 3.92 µM | GI50 (M14 melanoma): 1.75 µM | TGI (M14 melanoma): 3.24 µM | GI50 (SF-268 CNS): 1.91 µM | TGI (SF-268 CNS): 3.61 µM | GI50 (HOP-92 NSCLC): 1.9 µM | TGI (HOP-92 NSCLC): 3.63 µM | GI50 (HCT-116 colon): 1.77 µM | TGI (HCT-116 colon): 3.21 µM | GI50 (MDA-MB-231 breast): 1.87 µM | TGI (MDA-MB-231 breast): 3.4 µM | GI50 (EKVX NSCLC): 1.92 µM | TGI (EKVX NSCLC): 3.92 µM | GI50 (OVCAR-8 ovarian): 2.19 µM | TGI (OVCAR-8 ovarian): 4.94 µM | GI50 (ACHN renal): 1.82 µM | TGI (ACHN renal): 3.21 µM | GI50 (BT-549 breast): 1.79 µM | TGI (BT-549 breast): 3.4 µM | GI50 (DU-145 prostate): 1.7 µM | TGI (DU-145 prostate): 3.11 µM | GI50 (HT29 colon): 1.53 µM | TGI (HT29 colon): 3.33 µM | GI50 (SF-295 CNS): 12.3 µM | TGI (SF-295 CNS): 25.7 µM | GI50 (KM12 colon): 1.87 µM | TGI (KM12 colon): 3.52 µM | GI50 (CCRF-CEM leukemia): 2.33 µM | TGI (CCRF-CEM leukemia): 6.25 µM | GI50 (786-0 renal): 1.54 µM | TGI (786-0 renal): 2.9 µM | GI50 (SNB-75 CNS): 15.3 µM | TGI (SNB-75 CNS): 29 µM | GI50 (A498 renal): 8.86 µM | TGI (A498 renal): 21.5 µM | GI50 (SNB-19 CNS): 1.79 µM | TGI (SNB-19 CNS): 3.57 µM | GI50 (SK-OV-3 ovarian): 19.4 µM | TGI (SK-OV-3 ovarian): 33.7 µM | GI50 (SK-MEL-5 melanoma): 1.64 µM | TGI (SK-MEL-5 melanoma): 3.04 µM | GI50 (A549 NSCLC): 1.79 µM | TGI (A549 NSCLC): 3.43 µM | GI50 (SF-539 CNS): 1.9 µM | TGI (SF-539 CNS): 3.37 µM | GI50 (SN12C renal): 1.64 µM | TGI (SN12C renal): 3.08 µM | GI50 (NCI-H522 lung): 1.74 µM | TGI (NCI-H522 lung): 3.52 µM
